The record followed here is ChEMBL document CHEMBL5608241, “Discovery of Novel Non-nucleoside DOT1LR231Q Inhibitors with Improved Pharmacokinetic Properties and Anti-lung Cancer Efficacy” (J Med Chem, 2024).

The source made the active and inactive calls. No cut-off for these calls is given here.

For the experiment, the system named is NCI-H460. The experiment can be described thus: Downregulation of H3K79me2 expression in human NCI-H460 cells exogenously expressing DOT1L R231Q mutant (unknown origin) (1 to 416 residues) at 5 uM by Western blot analysis. The experiment is classed as functional, cell-based. (In general: In western blotting, separated proteins are transferred to a membrane and probed.)

As to `CC(C)(C)c1ccc(NC(=O)NCCCN(CCCN2CCOCC2)CC2(O)CCN(c3nc(Cl)nc4sccc34)C2)cc1` (stereo unspecified), the result was Active.
